# Assay results reported in patent publication US7138361B2, “Herbicidal heterocycles” (E. I. du Pont de Nemours and Company, priority 2000, dated 2006).
# Assays:
# Assay type in all cases: in vivo
# Sunflower [1] = assay: Test C preemergence; details: Rate 250 g/ha, scale 0 to 100, 0 no effect, 100 complete control
# corn (Zea mays) = assay: Test B preemergence
# Procedure, shortened: (§1)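 Greenhouse test: chemicals are formulated in a surfactant-containing non-phytotoxic solvent and applied either preemergence to planted seeds or postemergence to plants 2 to 18 cm tall. Response is rated visually versus controls after 13 to 15 days, 0 meaning no effect and 100 complete control.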
# [2] = test system: velvetleaf (Abutilon theophrasti); assay: Test B preemergence
# Procedure, shortened: as §1
# [3] = test system: morning glory (Ipomoea hederacea); assay: Test B preemergence
# Procedure, shortened: as §1
# [4] = test system: pigweed (Amaranthus retroflexus); assay: Test B preemergence
# Procedure, shortened: as §1
# [5] = test system: giant foxtail (Setaria faberii); assay: Test B preemergence
# Procedure, shortened: as §1
# [6] = test system: Surinam grass (Brachiaria decumbens); assay: Test B preemergence
# Procedure, shortened: as §1
# [7] = test system: lambsquarters (Chenopodium album); assay: Test B preemergence
# Procedure, shortened: as §1
# [8] = test system: crabgrass (Digitaria sanguinalis); assay: Test B preemergence
# Procedure, shortened: as §1
# [9] = test system: barnyardgrass (Echinochloa crus-galli); assay: Test B preemergence
# Procedure, shortened: as §1
# [10] = test system: cocklebur (Xanthium strumarium); assay: Test B preemergence
# Procedure, shortened: as §1
# rice (Oryza saliva) [11] = assay: Test B preemergence
# Procedure, shortened: as §1
# [12] = test system: duck salad (Heteranthera limosa); assay: Test C flooded paddy test; details: for Ducksalad plant response rating: Flooded Paddy, scale 0 to 100, 0 no effect, 100 complete control; for Plant response rating, Ducksalad: scale 0 to 100 (0 no effect, 100 complete control)
# Procedure, shortened: (§2)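 Rice and three paddy weeds were grown to the 2-leaf stage under flooded conditions, then treated and kept in a greenhouse for 12–14 days. Response was rated visually against untreated controls on a 0–100 scale, where 100 is complete control.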
# [13] = test system: barnyardgrass (Echinochloa crus-galli); assay: Test C flooded paddy test; details: for Barnyardgrass plant response rating: Flooded Paddy, scale 0 to 100, 0 no effect, 100 complete control; for Plant response rating, Barnyardgrass: scale 0 to 100 (0 no effect, 100 complete control)
# Procedure, shortened: as §2
# rice (Oryza saliva) [14] = assay: Test C flooded paddy test; details: for Rice plant response rating: Flooded Paddy, scale 0 to 100, 0 no effect, 100 complete control; for Plant response rating, Rice: scale 0 to 100 (0 no effect, 100 complete control)
# Procedure, shortened: as §2
# [15] = test system: smallflower flatsedge (Cyperus difformis); assay: Test C flooded paddy test; details: for Flatsedge plant response rating: Flooded Paddy, scale 0 to 100, 0 no effect, 100 complete control; for Plant response rating, Flatsedge: scale 0 to 100 (0 no effect, 100 complete control)
# Procedure, shortened: as §2
# [16] = test system: morning glory (Ipomoea hederacea); assay: Test B postemergence; details: Rate 125 g/ha, scale 0 to 100, 0 no effect, 100 complete control
# Procedure, shortened: as §1
# [17] = test system: pigweed (Amaranthus retroflexus); assay: Test B postemergence; details: Rate 125 g/ha, scale 0 to 100, 0 no effect, 100 complete control
# Procedure, shortened: as §1
# [18] = test system: giant foxtail (Setaria faberii); assay: Test B postemergence; details: Rate 125 g/ha, scale 0 to 100, 0 no effect, 100 complete control
# Procedure, shortened: as §1
# [19] = test system: Surinam grass (Brachiaria decumbens); assay: Test B postemergence
# Procedure, shortened: as §1
# [20] = test system: lambsquarters (Chenopodium album); assay: Test B postemergence; details: Rate 125 g/ha, scale 0 to 100, 0 no effect, 100 complete control
# Procedure, shortened: as §1
# [21] = test system: crabgrass (Digitaria sanguinalis); assay: Test B postemergence; details: Rate 125 g/ha, scale 0 to 100, 0 no effect, 100 complete control
# Procedure, shortened: as §1
# [22] = test system: barnyardgrass (Echinochloa crus-galli); assay: Test B postemergence
# Procedure, shortened: as §1
# [23] = test system: cocklebur (Xanthium strumarium); assay: Test B postemergence
# Procedure, shortened: as §1
# Nightshade = assay: Test C preemergence; details: Rate 500 g/ha, visual evaluation after 12 to 14 days
# Sunflower [24] = assay: Test C preemergence; details: Rate 62 g/ha, scale 0 to 100
# [25] = Preemergence, Rate 500 g/ha, scale 0 to 100, 0 no effect, 100 complete control
# [26] = preemergence, Rate 125 g/ha, scale of 0 to 100 where 0 is no effect and 100 is complete control, 13 to 15 days
# [27] = flooded paddy test, Rate 125 g/ha
# [28] = flooded paddy test, Rate 250 g/ha
# [29] = flooded paddy test, Rate 62 g/ha, visually evaluated after 12 to 14 days, 0 = no effect, 100 = complete control
# [30] = Rate 125 g/ha, scale 0 to 100, 0 no effect, 100 complete control
# [31] = Rate 500 g/ha, scale 0 to 100, 0 is no effect, 100 is complete control, 13 to 15 days
# [32] = flooded paddy test, Rate 62 g/ha
compound,measurement,setting,value
CCCC(C)c1ccn(C2OCN(c3cccc(OC(F)F)c3)C2=O)n1 (stereo not shown) [Compound 132],"Plant response rating, Sunflower",Sunflower [1],20
same,"Plant response rating, Corn",corn (Zea mays); [25],0
same,"Plant response rating, Corn",corn (Zea mays); [26],0
same,"Plant response rating, Velvetleaf",[2]; [25],30
same,"Plant response rating, Velvetleaf",[2]; [26],0
same,"Plant response rating, Morningglory",[3]; [25],0
same,"Plant response rating, Morningglory",[3]; [26],0
same,"Plant response rating, Pigweed",[4]; [25],100
same,"Plant response rating, Pigweed",[4]; [26],70
same,"Plant response rating, Foxtail, Giant",[5]; [25],100
same,"Plant response rating, Foxtail, Giant",[5]; [26],100
same,"Plant response rating, Surinam grass",[6]; [25],100
same,"Plant response rating, Surinam grass",[6]; [26],80
same,"Plant response rating, Lambsquarters",[7]; [25],100
same,"Plant response rating, Lambsquarters",[7]; [26],100
same,"Plant response rating, Crabgrass",[8]; [25],100
same,"Plant response rating, Crabgrass",[8]; [26],100
same,"Plant response rating, Barnyardgrass",[9]; [25],100
same,"Plant response rating, Barnyardgrass",[9]; [26],100
same,"Plant response rating, Cocklebur",[10]; [25],30
same,"Plant response rating, Cocklebur",[10]; [26],0
same,"Plant response rating, Rice",rice (Oryza saliva) [11]; [25],50
same,"Plant response rating, Rice",rice (Oryza saliva) [11]; [26],0
same,Ducksalad plant response rating,[12]; Rate 500 g/ha,80
same,"Plant response rating, Ducksalad",[12]; [27],20
same,"Plant response rating, Ducksalad",[12]; [28],40
same,"Plant response rating (scale 0 to 100), Ducksalad",[12]; [29],0
same,Barnyardgrass plant response rating,[13]; Rate 500 g/ha,100
same,"Plant response rating, Barnyardgrass",[13]; [27],70
same,"Plant response rating, Barnyardgrass",[13]; [28],100
same,"Plant response rating (scale 0 to 100), Barnyardgrass",[13]; [29],40
same,Rice plant response rating,rice (Oryza saliva) [14]; Rate 500 g/ha,90
same,"Plant response rating, Rice",rice (Oryza saliva) [14]; [27],20
same,"Plant response rating, Rice",rice (Oryza saliva) [14]; [28],20
same,"Plant response rating (scale 0 to 100), Rice",rice (Oryza saliva) [14]; [29],0
same,Flatsedge plant response rating,[15]; Rate 500 g/ha,90
same,"Plant response rating, Flatsedge",[15]; [27],90
same,"Plant response rating, Flatsedge",[15]; [28],90
same,"Plant response rating (scale 0 to 100), Flatsedge",[15]; [29],90
same,"Plant response rating, Morningglory",[16],0
same,"Plant response rating, Pigweed",[17],0
same,"Plant response rating, Foxtail, Giant",[18],0
same,"Plant response rating, Surinam grass",[19]; [30],0
same,"Plant response rating, Surinam grass",[19]; [31],0
same,"Plant response rating, Lambsquarters",[20],70
same,"Plant response rating, Crabgrass",[21],0
same,"Plant response rating, Barnyardgrass",[22]; [30],0
same,"Plant response rating, Barnyardgrass",[22]; [31],30
same,"Plant response rating, Cocklebur",[23]; [30],0
same,"Plant response rating, Cocklebur",[23]; [31],0
same,"Plant response rating (0 to 100), Nightshade",Nightshade,20
same,"Plant response rating, Sunflower",Sunflower [24],0
CCC(CC)c1ccn(C2CCN(c3ccc(Cl)c(OC)c3)C2=O)n1 (stereo not shown) [Compound 118],"Plant response rating, Sunflower",Sunflower [1],60
same,"Plant response rating, Corn",corn (Zea mays); [25],30
same,"Plant response rating, Corn",corn (Zea mays); [26],30
same,"Plant response rating, Velvetleaf",[2]; [25],90
same,"Plant response rating, Velvetleaf",[2]; [26],20
same,"Plant response rating, Morningglory",[3]; [25],100
same,"Plant response rating, Morningglory",[3]; [26],40
same,"Plant response rating, Pigweed",[4]; [25],100
same,"Plant response rating, Pigweed",[4]; [26],100
same,"Plant response rating, Foxtail, Giant",[5]; [25],100
same,"Plant response rating, Foxtail, Giant",[5]; [26],40
same,"Plant response rating, Surinam grass",[6]; [25],90
same,"Plant response rating, Surinam grass",[6]; [26],0
same,"Plant response rating, Lambsquarters",[7]; [25],100
same,"Plant response rating, Lambsquarters",[7]; [26],100
same,"Plant response rating, Crabgrass",[8]; [25],100
same,"Plant response rating, Crabgrass",[8]; [26],100
same,"Plant response rating, Barnyardgrass",[9]; [25],100
same,"Plant response rating, Barnyardgrass",[9]; [26],100
same,"Plant response rating, Cocklebur",[10]; [25],0
same,"Plant response rating, Cocklebur",[10]; [26],0
same,"Plant response rating, Rice",rice (Oryza saliva) [11]; [25],0
same,"Plant response rating, Rice",rice (Oryza saliva) [11]; [26],0
same,Ducksalad plant response rating,[12]; Rate 250 g/ha,100
same,Ducksalad plant response rating,[12]; Rate 500 g/ha,100
same,"Plant response rating, Ducksalad",[12]; [27],60
same,Barnyardgrass plant response rating,[13]; Rate 250 g/ha,100
same,Barnyardgrass plant response rating,[13]; Rate 500 g/ha,100
same,"Plant response rating, Barnyardgrass",[13]; [32],50
same,"Plant response rating, Barnyardgrass",[13]; [27],60
same,Rice plant response rating,rice (Oryza saliva) [14]; Rate 250 g/ha,20
same,Rice plant response rating,rice (Oryza saliva) [14]; Rate 500 g/ha,30
same,"Plant response rating, Rice",rice (Oryza saliva) [14]; [32],0
same,"Plant response rating, Rice",rice (Oryza saliva) [14]; [27],0
same,Flatsedge plant response rating,[15]; Rate 250 g/ha,100
same,Flatsedge plant response rating,[15]; Rate 500 g/ha,100
same,"Plant response rating, Flatsedge",[15]; [32],0
same,"Plant response rating, Flatsedge",[15]; [27],100
same,"Plant response rating, Morningglory",[16],40
same,"Plant response rating, Pigweed",[17],70
same,"Plant response rating, Foxtail, Giant",[18],0
same,"Plant response rating, Surinam grass",[19]; [30],30
same,"Plant response rating, Surinam grass",[19]; [31],40
same,"Plant response rating, Lambsquarters",[20],90
same,"Plant response rating, Crabgrass",[21],40
same,"Plant response rating, Barnyardgrass",[22]; [30],0
same,"Plant response rating, Barnyardgrass",[22]; [31],90
same,"Plant response rating, Cocklebur",[23]; [30],60
same,"Plant response rating, Cocklebur",[23]; [31],100
same,"Plant response rating (0 to 100), Nightshade",Nightshade,100
same,"Plant response rating, Sunflower",Sunflower [24],0
